Broadly, the IC50 is the point on the concentration scale where inhibition reaches its midpoint.

Where only a bound is given, the exact number is not on record here.

Type in all cases: cell-based, human
Assay [1] relates to KRAS G12C mutant MIA PaCa-2 cells. The assay is described as follows: Cell proliferation inhibition experiment, 3D spheroid, CellTiter-Glo, MIA PaCa-2. The conditions noted are these: Homo sapiens, MIA PaCa-2, 120 h, 3D cell model in 384-well spheroid plate, 5 days, CellTiter-Glo; read-out: MIA-PaCa2 IC50. The method, boiled down:
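200 MIA PaCa-2 cells/well grown overnight as 3D spheroids, then exposed to 3.16-fold compound dilutions (0.1% DMSO final) for 5 days. Viability read by CellTiter-Glo luminescence; inhibition calculated against DMSO and medium-only controls, and IC50 fitted by four-parameter model.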
A general note: ATP-based viability assays read luminescence as a measure of living cells.

Assay [2] deals with A549 cells (KRAS G12S mutant). Put plainly: Cell proliferation inhibition experiment, 3D spheroid, CellTiter-Glo, A549. The settings on record: Homo sapiens, A549, 120 h, A549 (KRAS G12S mutant) 3D spheroid, 5 days with compound, CellTiter-Glo; read-out: A549 IC50. The procedure, abridged: (§1)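 Cells seeded in 2% FBS medium in spheroid plates (800 H358 or 400 A549 per well), grown overnight to form 3D spheroids, then exposed to 3.16-fold compound dilutions (0.1% DMSO) for 5 days. CellTiter-Glo luminescence gave inhibition vs DMSO and medium blanks; IC50 by four-parameter fit.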

For assay [3], the system named is KRAS G12C mutant NCI-H358 cells. Put plainly: Cell proliferation inhibition experiment, 3D spheroid, CellTiter-Glo, NCI-H358. The conditions noted are these: Homo sapiens, NCI-H358, 120 h, NCI-H358 (KRAS G12C mutant) 3D spheroid, 5 days with compound, CellTiter-Glo; read-out: H358 IC50. The procedure, abridged:
as §1

As to `C=CC(=O)N1CCN2C(=O)c3c(N4C[C@H](OC)C[C@@H]4C)nc(-c4c(O)cccc4F)c(Cl)c3OC[C@H]2C1` [Z259a, (6aR)-8-acryloyl-4-chloro-3-(2-fluoro-6-hydroxyphenyl)-1-((2S,4R)-4-methoxy-2-methylpyrrolidin-1-yl)-6,6a,7,8,9,10-hexahydro-12H-pyrazino[2,1-c]pyrido[3,4-f][1,4]oxazepin-12-one], the values for the concentration for half-maximal inhibition (IC50) in assay [1], in assay [2] and in assay [3] were 4.4 nM, 9120 nM and 3 nM, respectively.

For `C=CC(=O)N1CCN2C(=O)c3c(N4C[C@@H](OC)C[C@@H]4C)nc(-c4c(O)cccc4F)c(Cl)c3OC[C@H]2C1` [Z260a, (6aR)-8-acryloyl-4-chloro-3-(2-fluoro-6-hydroxyphenyl)-1-((2S,4S)-4-methoxy-2-methylpyrrolidin-1-yl)-6,6a,7,8,9,10-hexahydro-12H-pyrazino[2,1-c]pyrido[3,4-f][1,4]oxazepin-12-one], the IC50 in assay [1] was 3.6 nM; in assay [2] it was over 30000 nM; in assay [3], 2.4 nM.

Consider `C=CC(=O)N1CCN2C(=O)c3c(N4CC(C#N)CC4(C)C)nc(-c4c(O)cccc4F)c(Cl)c3OC[C@H]2C1` (stereo partly drawn) [Z275, (6aR)-8-acryloyl-1-(4-cyano-2,2-dimethylpyrrolidin-1-yl)-4-chloro-3-(2-fluoro-6-hydroxyphenyl)-6,6a,7,8,9,10-hexahydro-12H-pyrazino[2,1-c]pyrido[3,4-f][1,4]oxazepin-12-one], for which the IC50 in assay [1] amounted to 5 nM; in assay [2], 7330 nM; in assay [3], 2.1 nM.

Turning to `C=CC(=O)N1CCN2C(=O)c3c(N4CC(C)(C)OC[C@@H]4C)nc(-c4c(O)cccc4F)c(Cl)c3OC[C@H]2C1` [Z276-1, (6aR)-8-acryloyl-4-chloro-3-(2-fluoro-6-hydroxyphenyl)-1-((S)-2,2,5-trimethylmorpholino)-6,6a,7,8,9,10-hexahydro-12H-pyrazino[2,1-c]pyrido[3,4-f][1,4]oxazepin-12-one], the IC50 in assay [1] is 14.9 nM; in assay [2] it was over 30000 nM; in assay [3] it was 7.6 nM.

As for `C=CC(=O)N1CCN2C(=O)c3c(N4CCC[C@@]4(C)CO)nc(-c4c(O)cccc4F)c(Cl)c3OC[C@H]2C1` [Z279-2], the IC50 in assay [1] was 4.9 nM; in assay [2], over 30000 nM; in assay [3], 3.8 nM.

For `C=CC(=O)N1CCN2C(=O)c3c(N4Cc5cn(C)nc5C4C)nc(-c4c(O)cccc4F)c(Cl)c3OC[C@H]2C1` (stereo partly drawn) [Z291-2], the IC50 in assay [1] was 7 nM; in assay [2] it was 9690 nM; in assay [3], 3.5 nM.

Turning to `C=CC(=O)N1CCN2C(=O)c3c(N4CCN(C)C(=O)[C@@H]4C)nc(-c4c(O)cccc4F)c(Cl)c3OC[C@H]2C1` [Z311-1, (6aR)-8-actyloyl-4-chloro-1-((S)-2,4-dimethyl-3-oxopiperazin-1-yl)-3-(2-fluoro-6-hydroxyphenyl)-6,6a,7,8,9,10-hexahydro-12H-pyrazino[2,1-c]pyrido[3,4-f][1,4]oxazepin-12-one], the IC50 in assay [1] is 12 nM; in assay [2], over 30000 nM; in assay [3], 10 nM.

In the case of `C=CC(=O)N1CCN2C(=O)c3c(N4CCN(C(C)=O)C[C@@H]4C)nc(-c4c(O)cccc4F)c(Cl)c3OC[C@H]2C1` [Z313-1], the values for the IC50 in assay [1], in assay [2] and in assay [3] were 2.6 nM, over 30000 nM and 1.6 nM, respectively.

With `C=CC(=O)N1CCN2C(=O)c3c(N4CCOCC4)nc(-c4nc(N)cc(C)c4C(F)(F)F)c(Cl)c3OC[C@H]2C1` [Z314], the figures for the IC50 in assay [1], in assay [2] and in assay [3] were 9.9 nM, over 30000 nM and 6 nM, respectively.

On to `C=CC(=O)N1CCN2C(=O)c3c(N4CCN(C(C)=O)C(C)(C)C4)nc(-c4c(O)cccc4F)c(Cl)c3OC[C@H]2C1` [Z315, (6aR)-1-(4-acetyl-3,3-dimethylpiperazin-1-yl)-8-acryloyl-4-chloro-3-(2-fluoro-6-hydroxyphenyl)-6,6a,7,8,9,10-hexahydro-12H-pyrazino[2,1-c]pyrido[3,4-f][1,4]oxazepin-12-one], for which the IC50 in assay [1] is 9.6 nM; in assay [2], over 30000 nM; in assay [3], 5 nM.
